Experimental findings from ChEMBL document CHEMBL4616610, “Discovery of a novel unsymmetrical structural class of HCV NS5A inhibitors with low picomolar antiviral activity” (Bioorg Med Chem Lett, 2020) are described below.

Experiment [1] has as its target T1, Nonstructural protein 5A (Hepatitis C virus, UniProt Q5L478).
T1 sequence (Q5L478 whole entry): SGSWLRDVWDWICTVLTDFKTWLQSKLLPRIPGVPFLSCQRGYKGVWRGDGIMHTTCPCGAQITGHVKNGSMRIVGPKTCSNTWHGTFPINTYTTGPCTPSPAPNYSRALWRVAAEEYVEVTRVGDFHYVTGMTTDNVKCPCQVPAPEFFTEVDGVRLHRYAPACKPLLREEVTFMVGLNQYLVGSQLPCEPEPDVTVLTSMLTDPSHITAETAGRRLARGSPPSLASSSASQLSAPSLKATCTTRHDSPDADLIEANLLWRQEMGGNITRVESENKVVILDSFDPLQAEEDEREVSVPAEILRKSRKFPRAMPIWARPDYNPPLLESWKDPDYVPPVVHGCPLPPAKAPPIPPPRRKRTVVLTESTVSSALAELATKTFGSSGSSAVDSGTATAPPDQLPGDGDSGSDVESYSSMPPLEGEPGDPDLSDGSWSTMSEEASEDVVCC
Briefly: Inhibition of NS5A in Hepatitis C virus subtype 1b replicon infected in human HuH7 cells assessed as reduction in viral replication. In kind it is cell-based. Particulars: huh-7. (In antiviral work, replicon cells carry a viral genome segment that copies itself.)

A short description of experiment [2]: Inhibition of NS5A in Hepatitis C virus subtype 1b replicon assessed as reduction in viral replication using Ac-Asp-Glu-Asp (EDANS)-Glu-Glu-Abu-(COO) Ala-Ser-Lys (DABCYL)-NH2 as substrate measured after 72 hrs by FRET assay.
The nature of experiment [3]: Inhibition of NS5A Q30K mutant in Hepatitis C virus subtype 1a replicon assessed as reduction in viral replication using Ac-Asp-Glu-Asp (EDANS)-Glu-Glu-Abu-(COO) Ala-Ser-Lys (DABCYL)-NH2 as substrate measured after 72 hrs by FRET assay.
A short description of experiment [4]: Inhibition of NS5A Q30K mutant in Hepatitis C virus subtype 1a replicon infected in human HuH7 cells assessed as reduction in viral replication. In kind it is cell-based. To be noted: Huh-7.

Turning to `CCCC(=O)Nc1ccc(-c2ccc(-c3c[nH]c([C@@H]4CCCN4C(=O)[C@H](NC(=O)CCCc4ccccc4)c4ccccc4)n3)cc2)cc1`, the EC50 (as a rule, the concentration at which the effect is half-maximal) in experiment [1] was “Not Active”.
The same measure, in the same setting: with `CCCC(=O)Nc1ccc(-c2ccc(-c3c[nH]c([C@@H]4CCCN4C(=O)[C@H](NC(=O)c4ccccc4)c4ccccc4)n3)cc2)cc1` the entry was “Not Active”.
For the molecule `CCCC(=O)Nc1ccc(-c2ccc(-c3c[nH]c([C@@H]4CCCN4C(=O)[C@H](NC(=O)c4ccccc4NC(=O)OCc4ccccc4)c4ccccc4)n3)cc2)cc1`, the half-maximal effective concentration (EC50) entry in experiment [1] is “Not Active”.
For `COC(=O)N[C@H](C(=O)N1CCC[C@H]1c1ncc(-c2ccc(-c3ccc(-c4cnc([C@@H]5CCCN5C(=O)[C@@H](NC(=O)OC)C(C)C)[nH]4)cc3)cc2)[nH]1)C(C)C` [DACLATASVIR], the EC50 in experiment [2] was found to be 9 pM; in experiment [3], 1230 nM.
With `COC1CCN(C(=O)Nc2ccc(-c3ccc(-c4c[nH]c([C@@H]5CCCN5C(=O)[C@H](NC(=O)N5CC[C@@H](NC(=O)OCc6ccccc6)C5)c5ccccc5)n4)cc3)cc2)CC1`, in experiment [4], the EC50 came to 4.7 nM.
In the case of `CCCC(=O)Nc1ccc(-c2ccc(-c3c[nH]c([C@@H]4CCCN4C(=O)[C@H](NC(=O)CCCCCCc4ccccc4)c4ccccc4)n3)cc2)cc1`, the EC50 result in experiment [1] is “Not Active”.
The same measure, in the same setting: with `CCCC(=O)Nc1ccc(-c2ccc(-c3c[nH]c([C@@H]4CCCN4C(=O)[C@H](NC(=O)c4ccc(NC(=O)OCc5ccccc5)cc4)c4ccccc4)n3)cc2)cc1` the entry was “Not Active”; with `CCCC(=O)Nc1ccc(-c2ccc(-c3c[nH]c([C@@H]4CCCN4C(=O)[C@H](NC(=O)N4CCCC4)c4ccccc4)n3)cc2)cc1`, “Not Active”.
For `CCCC(=O)Nc1ccc(-c2ccc(-c3c[nH]c([C@@H]4CCCN4C(=O)[C@H](NC(=O)N4CCC[C@H](NC(=O)OCc5ccccc5)C4)c4ccccc4)n3)cc2)cc1`, the EC50 result in experiment [1] was “Not Active”.
